Reference: PubChem BioAssay AID248 (DTP/NCI, 2004)
“And” between values parts separate entries of the source, which are not always exact repeats. Equal entries are not always repeated. Inconclusive results and toxic doses are left out. Cut-off read from the data, not from the text of the source: active = T/C of 150% or more; inactive = T/C below 125%.

System: L1210 leukemia ip in BDF1 mice, survival T/C
Test: NCI In Vivo Anticancer Drug Screen. Data for tumor model L1210 Leukemia (intraperitoneal) in B6D2F1 (BDF1) mice
Settings: endpoint: mean survival time, higher = longer survival
Procedure, shortened: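 Antitumor effect is assessed in tumor-bearing animals. Survival in the compound arm is compared with a vehicle-dosed control arm and expressed as their quotient.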

[1] = dose: 100.0 mg/kg/injection, schedule: Q01DX001 (ip), vehicle: saline
[2] = dose: 100.0 mg/kg/injection, schedule: Q01DX009 (ip), vehicle: saline with Tween-80
[3] = dose: 200.0 mg/kg/injection, schedule: Q01DX009 (ip), vehicle: saline with Tween-80
[4] = dose: 75.0 mg/kg/injection, schedule: Q01DX001 (ip), vehicle: saline
[5] = dose: 150.0 mg/kg/injection, schedule: Q01DX001 (ip), vehicle: saline
[6] = dose: 100.0 mg/kg/injection, schedule: Q01DX009 (ip), vehicle: Klucel (hydroxypropylcellulose) (HPC)
[7] = dose: 100.0 mg/kg/injection, schedule: Q04DX003 (ip), vehicle: Klucel (hydroxypropylcellulose) (HPC)
[8] = dose: 200.0 mg/kg/injection, schedule: Q04DX003 (ip), vehicle: Klucel (hydroxypropylcellulose) (HPC)
[9] = dose: 400.0 mg/kg/injection, schedule: Q04DX003 (ip), vehicle: Klucel (hydroxypropylcellulose) (HPC)
[10] = dose: 25.0 mg/kg/injection, schedule: Q01DX009 (ip), vehicle: Klucel (hydroxypropylcellulose) (HPC)
[11] = dose: 200.0 mg/kg/injection, schedule: Q01DX001 (ip), vehicle: saline
[12] = dose: 400.0 mg/kg/injection, schedule: Q01DX001 (ip), vehicle: saline
[13] = dose: 400.0 mg/kg/injection, schedule: Q01DX009 (ip), vehicle: saline with Tween-80
[14] = dose: 100.0 mg/kg/injection, schedule: Q01DX009 (ip), vehicle: saline
[15] = dose: 100.0 mg/kg/injection, schedule: Q04DX003 (ip), vehicle: saline

Measured: T/C

CCCCOCCOCCOC(C)Oc1ccc(C(=O)OC)cc1 (stereo not drawn)
inactive: dose: 100.0 mg/kg/injection, schedule: Q04DX002 (ip), vehicle: saline 92 % of control | dose: 200.0 mg/kg/injection, schedule: Q04DX002 (ip), vehicle: saline 99 % of control | dose: 400.0 mg/kg/injection, schedule: Q04DX002 (ip), vehicle: saline 101 % of control

CCN(CC)C(=O)C1CCC(CCc2c[nH]c3ccccc23)NC1 (stereo not drawn)
inactive: [1] 94 % of control

C1CC2CC3OC3CC12 (stereo not drawn)
inactive: dose: 100.0 mg/kg/injection, schedule: Q04DX002 (ip), vehicle: Klucel (hydroxypropylcellulose) (HPC) 95 % of control | dose: 200.0 mg/kg/injection, schedule: Q04DX002 (ip), vehicle: Klucel (hydroxypropylcellulose) (HPC) 92 % of control | dose: 400.0 mg/kg/injection, schedule: Q04DX002 (ip), vehicle: Klucel (hydroxypropylcellulose) (HPC) 92 % of control

C#CCCC#C
inactive: dose: 50.0 mg/kg/injection, schedule: Q01DX009 (ip), vehicle: saline with Tween-80 104 % of control | [2] 109 % of control | dose: 100.0 mg/kg/injection, schedule: Q04DX003 (ip), vehicle: saline with Tween-80 103 % of control | [3] 102 % of control | dose: 200.0 mg/kg/injection, schedule: Q04DX003 (ip), vehicle: saline with Tween-80 104 % of control

Nc1ccc(C(=O)OCCCCC2CCCC2N)cc1 (stereo not drawn)
inactive: [4] 97 % of control | [5] 113 % of control

Oc1ccccc1OCc1ccccc1
inactive: dose: 50.0 mg/kg/injection, schedule: Q04DX003 (ip), vehicle: Klucel (hydroxypropylcellulose) (HPC) 92 % of control | [6] 101 % of control | [7] 94 % of control | dose: 200.0 mg/kg/injection, schedule: Q01DX009 (ip), vehicle: Klucel (hydroxypropylcellulose) (HPC) 97 % of control | [8] 92 % of control | dose: 400.0 mg/kg/injection, schedule: Q01DX009 (ip), vehicle: Klucel (hydroxypropylcellulose) (HPC) 102 % of control | [9] 100 % of control

CCCCCCCCCCCCCCCC[As]1c2ccccc2Nc2ccccc21
inactive: dose: 100.0 mg/kg/injection, schedule: Q04DX002 (ip), vehicle: saline with Tween-80 86 % of control | dose: 200.0 mg/kg/injection, schedule: Q04DX002 (ip), vehicle: saline with Tween-80 89 % of control | dose: 400.0 mg/kg/injection, schedule: Q04DX002 (ip), vehicle: saline with Tween-80 86 % of control

C=C(Br)CNC(=O)C1CCCCC1
inactive: dose: 3.0 mg/kg/injection, schedule: Q04DX003 (ip), vehicle: Klucel (hydroxypropylcellulose) (HPC) 95 % of control | dose: 6.0 mg/kg/injection, schedule: Q04DX003 (ip), vehicle: Klucel (hydroxypropylcellulose) (HPC) 107 % of control | dose: 6.25 mg/kg/injection, schedule: Q01DX009 (ip), vehicle: Klucel (hydroxypropylcellulose) (HPC) 102 % of control | dose: 12.0 mg/kg/injection, schedule: Q04DX003 (ip), vehicle: Klucel (hydroxypropylcellulose) (HPC) 93 % of control | dose: 12.5 mg/kg/injection, schedule: Q01DX009 (ip), vehicle: Klucel (hydroxypropylcellulose) (HPC) 102 % of control | [10] 100 % of control

ClC(Cl)(Cl)C1OCCCO1
inactive: [1] 97 % of control | [11] 107 % of control | [12] 103 % of control

Cc1nc2ccc(N=Cc3ccc(N(CCCl)CCCl)cc3C)cc2[nH]1
inactive: [7] 104 % of control | [8] 102 % of control | [9] 101 % of control

C[N+](C)(C)c1ccc(/C=C2\C=Cc3ccccc32)cc1
inactive: dose: 15.0 mg/kg/injection, schedule: Q01DX001 (ip), vehicle: carboxymethylcellulose (CMC) 108 % of control | dose: 30.0 mg/kg/injection, schedule: Q01DX001 (ip), vehicle: carboxymethylcellulose (CMC) 102 % of control

CN(C)Cc1cc(C(C)(C)C)cc(C2CCCCC2)c1O
inactive: [2] 100 % of control | [3] 94 % of control | [13] 107 % of control

COc1ccc(CN2CCCN(Cc3ccc(OC)cc3OC)C2c2cccc(OC)c2O)c(OC)c1
inactive: dose: 50.0 mg/kg/injection, schedule: Q01DX001 (ip), vehicle: saline 95 % of control | [1] 92 % of control | [11] 92 % of control | [12] 95 % of control

BrC1CCC2C(CCC(Br)C23OCCO3)C12OCCO2 (stereo not drawn)
inactive: [14] 91 % of control | [15] 89 % of control | dose: 200.0 mg/kg/injection, schedule: Q01DX009 (ip), vehicle: saline 98 % of control | dose: 400.0 mg/kg/injection, schedule: Q01DX009 (ip), vehicle: saline 91 % of control | dose: 400.0 mg/kg/injection, schedule: Q04DX003 (ip), vehicle: saline 108 % of control

CCOC(=O)c1cccc2cccc(C(=O)OCC)c12
inactive: dose: 50.0 mg/kg/injection, schedule: Q01DX001 (ip), vehicle: carboxymethylcellulose (CMC) 97 % of control | dose: 100.0 mg/kg/injection, schedule: Q01DX001 (ip), vehicle: carboxymethylcellulose (CMC) 101 % of control | dose: 200.0 mg/kg/injection, schedule: Q01DX001 (ip), vehicle: carboxymethylcellulose (CMC) 101 % of control | dose: 400.0 mg/kg/injection, schedule: Q01DX001 (ip), vehicle: carboxymethylcellulose (CMC) 97 % of control

O=[N+]([O-])c1cc([N+](=O)[O-])c2ccc(Cl)nc2c1O
inactive: [1] 98 % of control | [11] 98 % of control | [12] 96 % of control

NC(=O)C1CN1Cc1ccccc1 (stereo not drawn)
inactive: [2] 97 % of control | [3] 95 % of control | [13] 89 % of control

COc1c(NC(=O)c2ccccc2Cl)cccc1[N+](=O)[O-]
inactive: [10] 100 % of control | dose: 50.0 mg/kg/injection, schedule: Q01DX009 (ip), vehicle: Klucel (hydroxypropylcellulose) (HPC) 88 % of control | [6] 91 % of control and 92 % of control

NC(N)=Nc1ccc(-c2ccc(N=C(N)N)cc2)cc1
inactive: dose: 12.5 mg/kg/injection, schedule: Q01DX Z (oral), vehicle: saline 97 % of control | dose: 25.0 mg/kg/injection, schedule: Q01DX Z (oral), vehicle: saline 106 % of control | dose: 50.0 mg/kg/injection, schedule: Q01DX Z (oral), vehicle: saline 101 % of control | dose: 100.0 mg/kg/injection, schedule: Q01DX Z (oral), vehicle: saline 105 % of control | dose: 200.0 mg/kg/injection, schedule: Q01DX Z (oral), vehicle: saline 100 % of control

O=[As](O)(O)c1ccccc1Br
inactive: [4] 111 % of control | [5] 105 % of control | dose: 300.0 mg/kg/injection, schedule: Q01DX001 (ip), vehicle: saline 102 % of control

O=C1OC(=O)C2C3c4ccccc4C(c4ccccc43)C12 (stereo not drawn)
inactive: dose: 25.0 mg/kg/injection, schedule: Q01DX009 (ip), vehicle: saline 103 % of control | dose: 50.0 mg/kg/injection, schedule: Q01DX009 (ip), vehicle: saline 98 % of control | dose: 50.0 mg/kg/injection, schedule: Q04DX003 (ip), vehicle: saline 96 % of control | [1] 98 % of control | [14] 114 % of control | [7] 103 % of control | [15] 98 % of control | [11] 88 % of control | [8] 90 % of control

CCOc1ccc(/C=C/c2cc[n+](C)cc2)cc1OC
inactive: dose: 25.0 mg/kg/injection, schedule: Q01DX001 (ip), vehicle: saline with Tween-80 108 % of control | dose: 50.0 mg/kg/injection, schedule: Q01DX001 (ip), vehicle: saline with Tween-80 95 % of control | dose: 100.0 mg/kg/injection, schedule: Q01DX001 (ip), vehicle: saline with Tween-80 93 % of control
